B1: PSP-94: prostate secretory protein of 94 amino acids; native human seminal plasma PSP-94 (protein)
chain: SCYFIPNEGVPGDSTRKCMDLKGNKHPINSEWQTDNCETCTCYETEISCCTLVSTPVGYDKDNCQRIFKKEDCKYIVVEKKDPKKTCSVSEWII

Tests used:
Mat Ly Lu-PTHrP cells = experiment: Cell morphology of treated Mat Ly Lu-PTHrP cells; format: cell-based, rat
Description: Cell morphology. Morphological analysis of control and experimental Mat Ly Lu-PTHrP cells treated with PSP-94 or PCK3145 was carried out by plating 5×10^4 cells/ well in 6-well plates (Falcon Plastics, Oxnard, Calif.) in the presence of 10% FBS.
Mat Ly Lu cells transfected with vector alone (CMV) or vector expressing PTHrP were seeded at a density of 5×10^3 cells/well in 6-well plates. Mat Ly Lu-PTHrP cells were treated with PSP-94 and were trypsinized and counted using a coulter counter as described herein. Change in cell number following treatment with 10.0 ug/ml of PSP-94 for 72 hrs is illustrated in FIG. 1.
Mat Ly Lu-PTHrP cells were seeded at a density of 5×10^3 cells/well in 6-well plates and treated with different doses (1.0-100.0 ug/ml) of PCK3145 for up to 5 days and were trypsinized and counted using a coulter counter as described herein.

PTHrP [1] = experiment: Tumoral PTHrP production by immunohistochemistry of primary tumors; format: in vivo, male Copenhagen rats
Description: Histologic Analysis. For immunohistological analysis, primary tumor samples were dewaxed by heating at 60° C. and rehydrated in a graded alcohol series (100%-70%). Anti-rat antibody against PTHrP was used as the primary antibody. Tumor sections were incubated overnight at 4° C. followed by further incubation with biotinylated universal antibody (Vector Laboratories, Burlingame, Calif.) for 45-60 minutes. Sections were rinsed with TBST (Tris buffered saline-Tween) followed by incubation with Vectastain ABC-AP Reagent (Vector Laboratories, Burlingame, Calif.) for 30 minutes. These sections were again washed with TBST and incubated with a Napthol AS-Mix Phosphate/Fast Red solution (Sigma-Aldriche, Oakville, ON). The sections were finally counterstained with Methyl Green (Vector Laboratories, Burlingame, Calif.) and mounted.
Alternatively, paraffin embedded tumor samples were cut into 5 um-thick sections for immunohistochemical analysis. […]
Tumors from control group treated with vehicle alone and experimental groups treated with different doses of PSP-94 (0.1-10.0 μg/kg/day) were excised, paraffin embedded, and sectioned and analyzed for tumoral PTHrP production by immunohistochemical reaction specific for PTHrP using method described herein. […] Three animals were present in each group and three tumor sections were analyzed for each animal by evaluating at least ten random fields of observation.
Primary tumors from control vehicle treated animals and animals treated with the highest dose of PCK3145 (100.0 ug/kg/day) were removed, paraffin embedded, and sectioned. […] Therefore, tumors from control group treated with vehicle alone and experimental group treated with the highest dose of PCK3145 (100.0 ug/kg/day) were excised and analyzed for tumoral PTHrP production by immunohistochemical analysis. […] No reaction was seen when these tumors were evaluated for background reaction in the absence of PTHrP antibody (NC).

PTHrP [2] = experiment: Plasma PTHrP radioimmunoassay in tumor bearing animals; format: in vivo, male Copenhagen rats
Description: Control animals received PBS alone as vehicle control.
Other Analytical Methods. Plasma calcium levels were determined by atomic absorption spectrophotometry (model 703, Perkin-Elmer, Norwalk, Conn.). For plasma PTHrP, all samples were tested in two dilutions in PTHrP radio-immunoassay (R.I.A.) kit (Nichols Institute Diagnostics, San Juan Capistrano, Calif.) according to manufacturer's instructions.
Comparison was made between plasma collected from normal, non-tumor bearing animals (N), control tumor bearing animals receiving vehicle alone (CTL) and plasma collected from experimental animals receiving different doses of PSP-94 (0.1-10.0 ug/kg/day). Plasma calcium levels were determined by atomic absorption spectrophotometry (model 703, Perkin-Elmer, Norwalk, Conn.). For plasma PTHrP, all samples were tested in two dilutions in PTHrP R.I.A. kit (Nichols Institute Diagnostics, San Juan Capistrano, Calif.) according to manufacturers instructions.
FIGS. 10A and 10B show male Copenhagen rats inoculated s.c. with 10^6 Mat Ly Lu-PTHrP cells. Following 3 days of tumor cell inoculation, animals were treated with vehicle alone (Ctl) or different doses (1.0, or 10.0 ug/kg/day) of PSP-94 for 18 days. Animals were sacrificed on day 21 and plasma PTHrP (FIG. 10A; expressed in picomole equivalents/liter) or plasma calcium (FIG. 10B; expressed in millimolar (mM)) levels were determined. Results for non-tumor bearing animals are also shown (N).
Comparison was made between plasma collected from normal, non-tumor bearing animals, control tumor bearing animals receiving vehicle alone and experimental animals receiving different doses of PCK3145 (1.0-100.0 ug/kg/day). […] Plasma PTHrP levels in normal non-tumor bearing animals are also shown (N).

| Molecule | cell morphology (Mat Ly Lu-PTHrP cells; 100.0 ug/ml PCK3145 (data not shown)) | tumoral PTHrP production (PTHrP immuno-staining) (PTHrP [1]; 100.0 ug/kg PCK3145, relative to lower doses) | tumoral PTHrP production (PTHrP immuno-staining) (PTHrP [1]; different doses of PCK3145 (data not shown), vs vehicle) | plasma PTHrP levels (PTHrP [2]; PCK3145 1.0-100.0 ug/kg/day, day 16, vs vehicle) | tumor cell morphology (Mat Ly Lu-PTHrP cells; 10.0 ug/ml PSP-94 for 3 days (data not shown)) | tumoral PTHrP production (PTHrP immunostaining) (PTHrP [1]; PSP-94 0.1-10.0 ug/kg/day, vs vehicle) | plasma PTHrP levels (PTHrP [2]; 10.0 ug/kg/day PSP-94) | plasma PTHrP levels (PTHrP [2]; PSP-94 0.1-10.0 ug/kg/day, day 16, vs vehicle) |
| --- | --- | --- | --- | --- | --- | --- | --- | --- |
| E W Q T D N C E T C T C Y E T (EWQTDNCETCTCYET; PCK3145 (polypeptide 31-45)) | changed their morphology from a more spindle-like appearance to a more circular and condensed shape | most pronounced | dose dependent decrease | dose-dependent decrease |  |  |  |  |
| B1 |  |  |  |  | noticeable change in tumor cell morphology | same dose-dependent decrease | near normalization | dose-dependent decrease |
